Data on 26 compounds can be found in patent publication US12492181B2, “Gem-disubstituted piperidine melanocortin subtype-2 receptor (MC2R) antagonists and uses thereof” (Crinetics Pharmaceuticals, Inc., priority 2019, dated 2025).

The structures appear in SMILES notation.

T1 sequence (Q01718 whole entry): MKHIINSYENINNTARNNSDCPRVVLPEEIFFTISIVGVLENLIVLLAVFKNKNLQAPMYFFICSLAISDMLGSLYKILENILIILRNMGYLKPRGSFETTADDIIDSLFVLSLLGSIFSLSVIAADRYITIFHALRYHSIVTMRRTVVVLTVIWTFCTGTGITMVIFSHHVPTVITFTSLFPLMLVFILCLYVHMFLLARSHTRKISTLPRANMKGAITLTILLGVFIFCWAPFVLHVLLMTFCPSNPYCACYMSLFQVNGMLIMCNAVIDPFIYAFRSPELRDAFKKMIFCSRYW
T1 sequence (Q8TCY5 whole entry partner): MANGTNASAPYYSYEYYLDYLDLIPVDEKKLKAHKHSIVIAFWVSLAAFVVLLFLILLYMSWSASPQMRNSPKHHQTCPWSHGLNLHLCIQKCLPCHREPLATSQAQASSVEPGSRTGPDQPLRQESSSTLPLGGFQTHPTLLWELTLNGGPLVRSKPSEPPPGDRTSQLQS

This assay has as its target T1, hMC2 receptor (crude hMC2R membranes from CRE-bla-CHO-K1 cells stably expressing hMC2 receptor and hMRAP accessory protein) (Homo sapiens, UniProt Q01718).
T1 construct: crude membrane fractions
Briefly: hMC2 membrane binding assay ([125I]ACTH (1-39) Tyr23, SPA). The conditions noted are these: displacement of 0.2 nM [125I]ACTH (1-39) Tyr23 from hMC2R membranes, 1.5 hours at room temperature; read-out: MC2R binding potency. Put shortly: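 Ki values come from non-linear regression of SPA scintillation counts, with compounds displacing [125I]ACTH(1-39) Tyr23. Membranes come from CRE-bla-CHO-K1 cells stably expressing hMC2 receptor together with hMRAP. They are preincubated with WGA-coated PVT SPA beads in 50 mM HEPES pH 7.4 with 0.20% BSA, Mg2+, Ca2+ and protease inhibitors.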
Regarding `CN1CC[C@H](NC(=O)C2(c3ccc(-c4ccc[nH]4)nc3)CCN(c3ccc(C(F)(F)F)cc3C#N)CC2)C1` [Compound 1-143, 1-[2-cyano-4-(trifluoromethyl)phenyl]-N-[(3S)-1-methylpyrrolidin-3-yl]-4-[6-(1H-pyrrol-2-yl)pyridin-3-yl]piperidine-4-carboxamide], the Ki is less than 10 nM.

For `COc1ncccc1-c1ncc(C2(C(=O)N[C@H]3CCN(C)C3)CCN(c3ccc(C(F)(F)F)cc3C#N)CC2)cc1F` [Compound 1-132, 1-[2-cyano-4-(trifluoromethyl)phenyl]-4-{3-fluoro-2′-methoxy-[2,3′-bipyridin]-5-yl}-N-[(3S)-1-methylpyrrolidin-3-yl]piperidine-4-carboxamide], the Ki was less than 10 nM.

With `CNCCNC(=O)C1(c2ccc(-c3cccnc3OC)nc2)CCN(c2ccc(C(F)(F)F)cc2Cl)CC1` [Compound 1-274, 1-[2-chloro-4-(trifluoromethyl)phenyl]-4-{2′-methoxy-[2,3′-bipyridin]-5-yl}-N-[2-(methylamino)ethyl]piperidine-4-carboxamide], the Ki is less than 10 nM.

For the compound `COc1ccccc1-c1ccc(C2(C(=O)NC[C@@H]3CCN3)CCN(c3ccc(C(F)(F)F)cc3C#N)CC2)cn1` [Compound 1-213, N-{[(2S)-azetidin-2-yl]methyl}-1-[2-cyano-4-(trifluoromethyl)phenyl]-4-[6-(2-methoxyphenyl)pyridin-3-yl]piperidine-4-carboxamide], the Ki is less than 10 nM.

`CCCc1ccccc1-c1ccc(C2(C(=O)N[C@@H]3CCN(C)C3)CCN(c3ccc(C(F)(F)F)cc3C#N)CC2)cn1` [Compound 1-117, 1-[2-cyano-4-(trifluoromethyl)phenyl]-N-[(3R)-1-methylpyrrolidin-3-yl]-4-[6-(2-propylphenyl)pyridin-3-yl]piperidine-4-carboxamide]: the Ki was less than 10 nM.

For `CCOc1ncccc1-c1ccc(C2(C(=O)NC[C@@H](N)CO)CCN(c3ccc(C(F)(F)F)cc3C#N)CC2)cn1` [Compound 1-17, N-[(2R)-2-amino-3-hydroxypropyl]-1-[2-cyano-4-(trifluoromethyl)phenyl]-4-{2′-ethoxy-[2,3′-bipyridin]-5-yl}piperidine-4-carboxamide], the Ki is less than 10 nM.

As for `CCOc1ncccc1-c1ncc(C2(C(=O)N[C@H]3CCN(C)C3)CCN(c3ccc(C(F)(F)F)cc3Cl)CC2)cc1F` [Compound 1-203, 1-[2-chloro-4-(trifluoromethyl)phenyl]-4-{2′-ethoxy-3-fluoro-[2,3′-bipyridin]-5-yl}-N-[(3S)-1-methylpyrrolidin-3-yl]piperidine-4-carboxamide], the Ki was less than 10 nM.

As to `CCOc1ncccc1-c1ccc(C2(C(=O)N[C@@H]3CCN(C)C3)CCN(c3ccc(C(F)(F)F)nc3C#N)CC2)cc1` [Compound 1-23, 1-[2-cyano-6-(trifluoromethyl)pyridin-3-yl]-4-[4-(2-ethoxypyridin-3-yl)phenyl]-N-[(3R)-1-methylpyrrolidin-3-yl]piperidine-4-carboxamide], the Ki was less than 10 nM.

Regarding `CNC[C@H](C)NC(=O)C1(c2ccc(-c3cccn3C)nc2)CCN(c2ccc(C(F)(F)F)cc2C#N)CC1` [Compound 1-316, 1-[2-cyano-4-(trifluoromethyl)phenyl]-4-[6-(1-methyl-1H-pyrrol-2-yl)pyridin-3-yl]-N-[(2S)-1-(methylamino)propan-2-yl]piperidine-4-carboxamide], the Ki is less than 10 nM.

Regarding `CN1C[C@@H](O)[C@H](NC(=O)C2(c3ccc(-c4cccn4C)nc3)CCN(c3ccc(C(F)(F)F)cc3C#N)CC2)C1` [Compound 1-269, 1-[2-cyano-4-(trifluoromethyl)phenyl]-N-[(3R,4R)-4-hydroxy-1-methylpyrrolidin-3-yl]-4-[6-(1-methyl-1H-pyrrol-2-yl)pyridin-3-yl]piperidine-4-carboxamide], the Ki was less than 10 nM.

With `CCOc1ncccc1-c1ncc(C2(C(=O)N[C@@H](C)CNC)CCN(c3ccc(C(F)(F)F)cc3F)CC2)cc1F` [Compound 1-315, 4-{2′-ethoxy-3-fluoro-[2,3′-bipyridin]-5-yl}-1-[2-fluoro-4-(trifluoromethyl)phenyl]-N-[(2S)-1-(methylamino)propan-2-yl]piperidine-4-carboxamide], the Ki is less than 10 nM.

For the compound `COc1ccccc1-c1ccc(C2(C(=O)NC[C@@H]3C[C@@H](F)CN3C)CCN(c3ccc(C(F)(F)F)cc3C#N)CC2)cn1` [Compound 1-250, 1-[2-cyano-4-(trifluoromethyl)phenyl]-N-{[(2S,4R)-4-fluoro-1-methylpyrrolidin-2-yl]methyl}-4-[6-(2-methoxyphenyl)pyridin-3-yl]piperidine-4-carboxamide], the Ki is less than 10 nM.

For the compound `COc1ccccc1-c1ccc(C2(C(=O)NC[C@@H]3CN(C)CCO3)CCN(c3ccc(C(F)(F)F)cc3C#N)CC2)cn1` [Compound 1-330, 1-[2-cyano-4-(trifluoromethyl)phenyl]-4-[6-(2-methoxyphenyl)pyridin-3-yl]-N-{[(2R)-4-methylmorpholin-2-yl]methyl}piperidine-4-carboxamide], the Ki lay within 10 to 100 nM.

As for `CN1CC[C@H](NC(=O)NC2(c3ccc(-c4cccn4C)nc3)CCN(c3ccc(C(F)(F)F)cc3C#N)CC2)C1` [Compound 2-43, 1-{1-[2-cyano-4-(trifluoromethyl)phenyl]-4-[6-(1-methyl-1H-pyrrol-2-yl)pyridin-3-yl]piperidin-4-yl}-3-[(3S)-1-methylpyrrolidin-3-yl]urea], the Ki was less than 10 nM.

As to `CN1CC[C@@H](NC(=O)C2(c3ccc(-c4ccc(C#N)n4C)nc3)CCN(c3ccc(C(F)(F)F)cc3C#N)CC2)C1` [Compound 1-153, 4-[6-(5-cyano-1-methyl-1H-pyrrol-2-yl)pyridin-3-yl]-1-[2-cyano-4-(trifluoromethyl)phenyl]-N-[(3R)-1-methylpyrrolidin-3-yl]piperidine-4-carboxamide], the Ki lay within 10 to 100 nM.

Consider `Cc1occc1-c1ccc(C2(C(=O)N[C@@H]3CCN(C)C3)CCN(c3ccc(C(F)(F)F)cc3C#N)CC2)cn1` [Compound 1-116, 1-[2-cyano-4-(trifluoromethyl)phenyl]-4-[6-(2-methylfuran-3-yl)pyridin-3-yl]-N-[(3R)-1-methylpyrrolidin-3-yl]piperidine-4-carboxamide], for which the Ki was less than 10 nM.

Regarding `COc1ccccc1-c1ccc(C2(C(=O)N[C@@H]3CN(C)C[C@@H]3F)CCN(c3ccc(C(F)(F)F)cc3C#N)CC2)cn1` [Compound 1-242, 1-[2-cyano-4-(trifluoromethyl)phenyl]-N-[(3R,4S)-4-fluoro-1-methylpyrrolidin-3-yl]-4-[6-(2-methoxyphenyl)pyridin-3-yl]piperidine-4-carboxamide], the Ki is less than 10 nM.

On to `CCOc1ncccc1-c1ncc(C2(C(=O)NCCN(C)C)CCN(c3ccc(C(F)(F)F)cc3F)CC2)cc1F` [Compound 1-284, N-[2-(dimethylamino)ethyl]-4-{2′-ethoxy-3-fluoro-[2,3′-bipyridin]-5-yl}-1-[2-fluoro-4-(trifluoromethyl)phenyl]piperidine-4-carboxamide], for which the Ki is less than 10 nM.

Consider `CCOc1ncccc1-c1ccc(C2(C(=O)NC[C@@H](C)N)CCN(c3ccc(C(F)(F)F)cc3C#N)CC2)cc1` [Compound 1-4, N-[(2R)-2-aminopropyl]-1-[2-cyano-4-(trifluoromethyl)phenyl]-4-[4-(2-ethoxypyridin-3-yl)phenyl]piperidine-4-carboxamide], for which the Ki was in the range of 10 to 100 nM.

As for `COc1ccccc1-c1ccc(C2(NC(=O)N[C@@H]3CCN(C)C3)CCN(c3ccc(C(F)(F)F)cc3C#N)CC2)cn1` [Compound 2-56, 1-{1-[2-cyano-4-(trifluoromethyl)phenyl]-4-[6-(2-methoxyphenyl)pyridin-3-yl]piperidin-4-yl}-3-[(3R)-1-methylpyrrolidin-3-yl]urea], the Ki is less than 10 nM.

For `COc1ccccc1-c1ccc(C2(C(=O)NCCN(C)C)CCN(c3ccc(C(F)(F)F)cc3C#N)CC2)cn1` [Compound 1-212, 1-[2-cyano-4-(trifluoromethyl)phenyl]-N-[2-(dimethylamino)ethyl]-4-[6-(2-methoxyphenyl)pyridin-3-yl]piperidine-4-carboxamide], the Ki was less than 10 nM.

On to `COc1sccc1-c1ccc(C2(C(=O)N[C@H]3CCN(C)C3)CCN(c3ccc(C(F)(F)F)cc3C#N)CC2)cn1` [Compound 1-119, 1-[2-cyano-4-(trifluoromethyl)phenyl]-4-[6-(2-methoxythiophen-3-yl)pyridin-3-yl]-N-[(3S)-1-methylpyrrolidin-3-yl]piperidine-4-carboxamide], for which the Ki was less than 10 nM.

For `CCOc1ncccc1-c1ccc(C2(C(=O)NC[C@H](C)N)CCN(c3ccc(C(F)(F)F)cc3C#N)CC2)cc1` [Compound 1-6, N-[(2S)-2-aminopropyl]-1-[2-cyano-4-(trifluoromethyl)phenyl]-4-[4-(2-ethoxypyridin-3-yl)phenyl]piperidine-4-carboxamide], the Ki lay in the range of 10 to 100 nM.

With `CNCCNC(=O)C1(c2ccc(-c3ccccc3OC)nc2)CCN(c2ccc(C(F)(F)F)cc2F)CC1` [Compound 1-256, 1-[2-fluoro-4-(trifluoromethyl)phenyl]-4-[6-(2-methoxyphenyl)pyridin-3-yl]-N-[2-(methylamino)ethyl]piperidine-4-carboxamide], the Ki was less than 10 nM.

As for `COc1cccnc1-c1ccc(C2(C(=O)N[C@H]3CCN(C)C3)CCN(c3ccc(C(F)(F)F)cc3C#N)CC2)cn1` [Compound 1-178, 1-[2-cyano-4-(trifluoromethyl)phenyl]-4-{3′-methoxy-[2,2′-bipyridin]-5-yl}-N-[(3S)-1-methylpyrrolidin-3-yl]piperidine-4-carboxamide], the Ki was in the range of 10 to 100 nM.

On to `CNCCCNC(=O)C1(c2cnc(-c3ccccc3OC)c(F)c2)CCN(c2ccc(C(F)(F)F)cc2C#N)CC1` [Compound 1-197, 1-[2-cyano-4-(trifluoromethyl)phenyl]-4-[5-fluoro-6-(2-methoxyphenyl)pyridin-3-yl]-N-[3-(methylamino)propyl]piperidine-4-carboxamide], for which the Ki is less than 10 nM.
